Test system: 556581-035-R-J1-PDC complex spheroid viability
Test: Anticancer human tumor 556581-035-R-J1-PDC patient-derived ovarian carcinoma cell line growth inhibition
Conditions: for IC50: curve of first compound; for viability, T/C: stronger effect = lower value
Summary of the method: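 Multicellular complex spheroids of tumor cells with human endothelial cells (HUVEC) and mesenchymal stem cells; the LSD1 inhibitor iadademstat was combined with standard-of-care or investigational agents. Top concentration at or near clinical Cmax, half-log dilutions; final DMSO ≤0.25%.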

[1] = second compound 0.1 µM, first compound 0.0316 µM
[2] = second compound 0.1 µM, first compound 0.1 µM
[3] = second compound 0.1 µM, first compound 0.316 µM
[4] = second compound 0.1 µM, first compound 1 µM
[5] = second compound 0.316 µM, first compound 0.0316 µM
[6] = second compound 0.316 µM, first compound 0.1 µM
[7] = second compound 0.316 µM, first compound 0.316 µM
[8] = second compound 0.316 µM, first compound 1 µM
[9] = second compound 1 µM, first compound 0.0316 µM
[10] = second compound 1 µM, first compound 0.1 µM
[11] = second compound 1 µM, first compound 0.316 µM
[12] = second compound 1 µM, first compound 1 µM
[13] = second compound 3.16 µM, first compound 0.0316 µM
[14] = second compound 3.16 µM, first compound 0.1 µM
[15] = second compound 3.16 µM, first compound 0.316 µM
[16] = second compound 3.16 µM, first compound 1 µM
[17] = second compound 10 µM, first compound 0.0316 µM
[18] = second compound 10 µM, first compound 0.1 µM
[19] = second compound 10 µM, first compound 0.316 µM
[20] = second compound 10 µM, first compound 1 µM
[21] = second compound 0.1 µM, first compound 0.00949 µM
[22] = second compound 0.1 µM, first compound 0.03 µM
[23] = second compound 0.1 µM, first compound 0.0949 µM
[24] = second compound 0.1 µM, first compound 0.3 µM
[25] = second compound 0.316 µM, first compound 0.00949 µM
[26] = second compound 0.316 µM, first compound 0.03 µM
[27] = second compound 0.316 µM, first compound 0.0949 µM
[28] = second compound 0.316 µM, first compound 0.3 µM
[29] = second compound 1 µM, first compound 0.00949 µM
[30] = second compound 1 µM, first compound 0.03 µM
[31] = second compound 1 µM, first compound 0.0949 µM
[32] = second compound 1 µM, first compound 0.3 µM
[33] = second compound 3.16 µM, first compound 0.00949 µM
[34] = second compound 3.16 µM, first compound 0.03 µM
[35] = second compound 3.16 µM, first compound 0.0949 µM
[36] = second compound 3.16 µM, first compound 0.3 µM
[37] = second compound 10 µM, first compound 0.00949 µM
[38] = second compound 10 µM, first compound 0.03 µM
[39] = second compound 10 µM, first compound 0.0949 µM
[40] = second compound 10 µM, first compound 0.3 µM
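Further: spheroids exposed to agents for seven days.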
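Wherever viability, T/C is given: 100% = DMSO vehicle control wells.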

With `CC1COCCN1c1cc(C2(S(C)(=N)=O)CC2)nc(-c2ccnc3[nH]ccc23)n1` (stereo not given) + NC1CC1c1ccc(-c2cccc(O)c2)cc1 the IC50 (second compound 0.1 µM) was 5950 nM, the IC50 (second compound 0.316 µM) was 5940 nM and the IC50 (second compound 1 µM) was 5370 nM. It also gave an IC50 (second compound 3.16 µM) of over 10000 nM, an IC50 (second compound 10 µM) of over 10000 nM and a viability, T/C [1] of 101%. It also gave a viability, T/C [2] of 98.6%, a viability, T/C [3] of 78.9% and a viability, T/C [4] of 72.3%. The viability, T/C (second compound 0.1 µM, first compound 3.16 µM) was 52.5%, the viability, T/C (second compound 0.1 µM, first compound 10 µM) was 46.7% and the viability, T/C [5] was 95.3%. For the same compound, the viability, T/C [6] was 85.5%, the viability, T/C [7] was 77.8% and the viability, T/C [8] was 70.7%. It also gave a viability, T/C (second compound 0.316 µM, first compound 3.16 µM) of 52.6%, a viability, T/C (second compound 0.316 µM, first compound 10 µM) of 46.3% and a viability, T/C [9] of 87.9%. For the same compound, the viability, T/C [10] was 88.9%, the viability, T/C [11] was 84.3% and the viability, T/C [12] was 77.4%. The viability, T/C (second compound 1 µM, first compound 3.16 µM) was 53.7%, the viability, T/C (second compound 1 µM, first compound 10 µM) was 45.5% and the viability, T/C [13] was 87.9%. For the same compound, the viability, T/C [14] was 96%, the viability, T/C [15] was 85.5% and the viability, T/C [16] was 70.5%. The viability, T/C (second compound 3.16 µM, first compound 3.16 µM) was 54.2%, the viability, T/C (second compound 3.16 µM, first compound 10 µM) was 50.9% and the viability, T/C [17] was 88.4%. The viability, T/C [18] was 84.8%, the viability, T/C [19] was 78.3% and the viability, T/C [20] was 69.7%. It also gave a viability, T/C (second compound 10 µM, first compound 3.16 µM) of 51.3% and a viability, T/C (second compound 10 µM, first compound 10 µM) of 54.7%.
`CCN(c1cc(-c2ccc(CN3CCOCC3)cc2)cc(C(=O)NCc2c(C)cc(C)[nH]c2=O)c1C)C1CCOCC1` + NC1CC1c1ccc(-c2cccc(O)c2)cc1 gave an IC50 (second compound 0.1 µM) of 776 nM, an IC50 (second compound 0.316 µM) of 732 nM and an IC50 (second compound 1 µM) of 633 nM. It also gave an IC50 (second compound 3.16 µM) of 466 nM, an IC50 (second compound 10 µM) of 666 nM and a viability, T/C [21] of 106%. It also gave a viability, T/C [22] of 92.2%, a viability, T/C [23] of 86.7% and a viability, T/C [24] of 73.4%. It also gave a viability, T/C (second compound 0.1 µM, first compound 0.949 µM) of 42.5%, a viability, T/C (second compound 0.1 µM, first compound 3 µM) of 25.1% and a viability, T/C [25] of 105%. The viability, T/C [26] was 95.5%, the viability, T/C [27] was 78.5% and the viability, T/C [28] was 69.3%. The viability, T/C (second compound 0.316 µM, first compound 0.949 µM) was 42.7%, the viability, T/C (second compound 0.316 µM, first compound 3 µM) was 27.4% and the viability, T/C [29] was 94.2%. It also gave a viability, T/C [30] of 84.7%, a viability, T/C [31] of 84.8% and a viability, T/C [32] of 66.8%. The viability, T/C (second compound 1 µM, first compound 0.949 µM) was 40.5%, the viability, T/C (second compound 1 µM, first compound 3 µM) was 30.5% and the viability, T/C [33] was 98.7%. For the same compound, the viability, T/C [34] was 102%, the viability, T/C [35] was 78% and the viability, T/C [36] was 58.1%. The viability, T/C (second compound 3.16 µM, first compound 0.949 µM) was 39.4%, the viability, T/C (second compound 3.16 µM, first compound 3 µM) was 32.5% and the viability, T/C [37] was 83.6%. It also gave a viability, T/C [38] of 87.7%, a viability, T/C [39] of 82.1% and a viability, T/C [40] of 63.6%. It also gave a viability, T/C (second compound 10 µM, first compound 0.949 µM) of 44.6% and a viability, T/C (second compound 10 µM, first compound 3 µM) of 30.6%.
Work on `Nc1ncn(C2CC(O)C(CO)S2)c(=O)n1` (stereo not given) + NC1CC1c1ccc(-c2cccc(O)c2)cc1 yielded an IC50 (second compound 0.1 µM) of 37.5 nM, an IC50 (second compound 0.316 µM) of 33.1 nM and an IC50 (second compound 1 µM) of 34.7 nM. The IC50 (second compound 3.16 µM) was 33.7 nM, the IC50 (second compound 10 µM) was 28.8 nM and the viability, T/C (second compound 0.1 µM, first compound 0.000949 µM) was 86.7%. It also gave a viability, T/C (second compound 0.1 µM, first compound 0.003 µM) of 84.5%, a viability, T/C [21] of 78.2% and a viability, T/C [22] of 52%. For the same compound, the viability, T/C [23] was 34.1%, the viability, T/C [24] was 20.6% and the viability, T/C (second compound 0.316 µM, first compound 0.000949 µM) was 85.9%. The viability, T/C (second compound 0.316 µM, first compound 0.003 µM) was 80%, the viability, T/C [25] was 88.1% and the viability, T/C [26] was 52.4%. The viability, T/C [27] was 27.9%, the viability, T/C [28] was 22.4% and the viability, T/C (second compound 1 µM, first compound 0.000949 µM) was 80.5%. The viability, T/C (second compound 1 µM, first compound 0.003 µM) was 83.5%, the viability, T/C [29] was 70% and the viability, T/C [30] was 54.1%. For the same compound, the viability, T/C [31] was 30.8%, the viability, T/C [32] was 24% and the viability, T/C (second compound 3.16 µM, first compound 0.000949 µM) was 88.7%. It also gave a viability, T/C (second compound 3.16 µM, first compound 0.003 µM) of 93.6%, a viability, T/C [33] of 73.7% and a viability, T/C [34] of 52.6%. The viability, T/C [35] was 33.1%, the viability, T/C [36] was 25.4% and the viability, T/C (second compound 10 µM, first compound 0.000949 µM) was 82.2%. For the same compound, the viability, T/C (second compound 10 µM, first compound 0.003 µM) was 79.7%, the viability, T/C [37] was 65.4% and the viability, T/C [38] was 52%. For the same compound, the viability, T/C [39] was 32.1% and the viability, T/C [40] was 29.9%.
`O=C(C=Cn1cnc(-c2cc(C(F)(F)F)cc(C(F)(F)F)c2)n1)NNc1cnccn1` + NC1CC1c1ccc(-c2cccc(O)c2)cc1 was tested, and the IC50 (second compound 0.1 µM) was 40.6 nM, the IC50 (second compound 0.316 µM) was 51.3 nM and the IC50 (second compound 1 µM) was 70.5 nM. The IC50 (second compound 3.16 µM) was 73.4 nM, the IC50 (second compound 10 µM) was 80.1 nM and the viability, T/C (second compound 0.1 µM, first compound 0.00316 µM) was 68%. The viability, T/C (second compound 0.1 µM, first compound 0.01 µM) was 63.7%, the viability, T/C [1] was 52.4% and the viability, T/C [2] was 38.5%. It also gave a viability, T/C [3] of 16.9%, a viability, T/C [4] of 6.78% and a viability, T/C (second compound 0.316 µM, first compound 0.00316 µM) of 74.5%. It also gave a viability, T/C (second compound 0.316 µM, first compound 0.01 µM) of 73.1%, a viability, T/C [5] of 61.4% and a viability, T/C [6] of 32.6%. For the same compound, the viability, T/C [7] was 22.7%, the viability, T/C [8] was 4.35% and the viability, T/C (second compound 1 µM, first compound 0.00316 µM) was 76.9%. It also gave a viability, T/C (second compound 1 µM, first compound 0.01 µM) of 74.2%, a viability, T/C [9] of 72.3% and a viability, T/C [10] of 40.1%. It also gave a viability, T/C [11] of 17.2%, a viability, T/C [12] of 10.3% and a viability, T/C (second compound 3.16 µM, first compound 0.00316 µM) of 73.1%. For the same compound, the viability, T/C (second compound 3.16 µM, first compound 0.01 µM) was 74.3%, the viability, T/C [13] was 61% and the viability, T/C [14] was 43.7%. It also gave a viability, T/C [15] of 28%, a viability, T/C [16] of 8% and a viability, T/C (second compound 10 µM, first compound 0.00316 µM) of 71.3%. For the same compound, the viability, T/C (second compound 10 µM, first compound 0.01 µM) was 77.7%, the viability, T/C [17] was 56.5% and the viability, T/C [18] was 52.3%. For the same compound, the viability, T/C [19] was 20.2% and the viability, T/C [20] was 13.4%.

Reference: PubChem BioAssay AID1918938 (Molecular Pharmacology Branch, DTP, NCI, 2023)
